The results in this text go back to US20250213603A1, “PHARMACEUTICAL COMPOSITION FOR TREATING CANCER” (SAGA UNIVERSITY, priority 2021, published 2025).

The test system of series [1] is BV173. Put plainly: Cell proliferation inhibition, modified MTT assay (Cell Counting Kit-8). The class given is cell-based. To be noted: BV173, incubation for 72 hours, average±SD of 3 independent experiments. Here is the method:
(§1) The proliferation inhibitory action in leukemia cell lines was evaluated using a modified dimethyl-thiazole-diphenyl-tetrazolium (MTT) assay as follows.
(§2) The hepatocyte line and leukemia cell lines (K562, BV173, Ba/F3 p190, Ba/F3 p210, MYL-R, K562-IMR, and KBM5-STI) were used in this example. The FA-HP-β-CyD synthesized in Example 1 was used.
(§3) The cell viability was evaluated using the trypan blue dye exclusion method. Cell proliferation was evaluated using a Cell Counting Kit-8 (Dojindo, Japan), which is an MTT assay. 2×10^4 of each cell was seeded with 100 μL RPMI1640 medium (Sigma-Aldrich, USA) per well to a flatbottom 96-well plate (Greiner Labortechnik, Hamburg, Germany), and incubation for 72 hours was carried out with exposure to HP-β-CyD and FA-HP-β-CyD at different concentrations (0 mM (control: CT), 0.05 mM, 0.1 mM, 0.25 mM, 0.5 mM, and 1 mM).
In general terms: Tetrazolium assays rely on reduction of a dye to a coloured formazan, in cell work by metabolically active cells.

In another series the test system is Ba/F3 P190. The description is as above. In kind it is cell-based. The settings on record: Ba/F3 P190, incubation for 72 hours, average±SD of 3 independent experiments. Here is the method:
as §1, §2, §3

A further series concerns Ba/F3 P210. The description is as above. In kind it is cell-based. The settings on record: Ba/F3 P210, incubation for 72 hours, average±SD of 3 independent experiments. As to the method: as §1, §2, §3
A further series concerns K562-IMR. Described as above. The settings on record: incubation for 72 hours, average±SD of 3 independent experiments. In kind it is cell-based. Here is the method:
as §1, §2, §3

Series [2] relates to K562. The description is as above. In kind it is cell-based. To be noted: K562, incubation for 72 hours, average±SD of 3 independent experiments. Here is the method:
as §1, §2, §3

The next series relates to KBM5-STI. Described as above. In kind it is cell-based. The settings on record: incubation for 72 hours, average±SD of 3 independent experiments. Here is the method:
as §1, §2, §3

Another series deals with MYL-R. The description is as above. In kind it is cell-based. To be noted: incubation for 72 hours, average±SD of 3 independent experiments. Here is the method: as §1, §2, §3
For another series, the system named is hepatocyte. The series is described as above. The settings on record: hepatocyte line, incubation for 72 hours, average±SD of 3 independent experiments. The class given is cell-based. As to the method: as §1, §2, §3
The next series relates to A549. Put plainly: Proliferation inhibitory action on low folate receptor-expressing cells (MTT assay). In kind it is cell-based, human. The settings on record: A549, 2.5-10 mM, 72 hours (FIG. 3). Here is the method:
The proliferation inhibitory action on A549, a low folate receptor-expressing cell, was evaluated as follows.
A human non-small cell lung cancer cell line (A549) was used in this example. The FA-HP-β-CyD synthesized in Example 1 was used.
For cell proliferation, 2×10^4 cells of the […] were seeded with 100 μL DMEM medium (Sigma-Aldrich, USA) per well to a flatbottom 96-well plate (Greiner Labortechnik, Hamburg, Germany), and incubation for 72 hours was carried out with exposure to HP-β-CyD and FA-HP-β-CyD at different concentrations (0 mM (control: CT), 2.5 mM, 5 mM, 7.5 mM, and 10 mM). Evaluation was then carried out using a dimethyl-thiazole-diphenyl-tetrazolium (MTT) assay (Nacalai Tesque, Japan).

In series [3] the test system is BV173. Put plainly: Cellular uptake of TRITC-labelled CyD, confocal microscopy. In kind it is cell-based. The settings on record: confocal microscopy (FIG. 6). Here is the method:
The cellular uptake of FA-HP-β-CyD was evaluated as follows.
A leukemia cell line (BV173) was used in this example. The FA-HP-β-CyD synthesized in Example 1 was used.
10 mg HP-β-CyD or FA-HP-β-CyD and 1 mg of TRITC were dissolved in 400 μL of dimethyl sulfoxide (DMSO) with stirring for 24 hours and the solution was then gradually poured into acetone. A precipitate was obtained and was washed with water. This was freeze-dried to prepare TRITC-HP-β-CyD and TRITC-FA-HP-β-CyD.
The cells were then cultured at a cell density of 4×10e5 per well on a 6-well plate and were incubated with […], TRITC-HP-β-CyD, FA-HP-β-CyD, or HP-βCyD at different concentrations. A Zeiss LSM880 confocal microscope was used to observe the cells. Imaris (Zeiss) fluorescent image analysis software was used for analysis.
The Control refers to incubation at the same time as the other exposure groups, but without exposure to an agent. Cell localization was stained by DAPI and the cell membrane was stained with PlasMen Bright Green, and the cellular uptake of TRITC-FA-HP-β-CyD was evaluated using confocal microscopy.

Series [4] concerns BV173. Put plainly: Effect of autophagy inhibition on the cell proliferation inhibitory effect. The settings on record: 5 mM FA-HP-β-CyD or 15 mM HP-β-CyD, chloroquine, bafilomycin A1 or LY294002 (FIG. 8). The class given is cell-based. Here is the method:
(§4) The effect of autophagy inhibition on the cell proliferation inhibitory effect was evaluated as follows.
(§5) Leukemia cell lines (K562 and BV173) were used in this example. The FA-HP-β-CyD synthesized in Example 1 was used.
(§6) 2×10^5 of each cell with 100 μL RPMI1640 medium (Sigma-Aldrich, USA) was seeded per well to a flatbottom 96-well plate (Greiner Labortechnik, Hamburg, Germany), and treatment was carried out for 2 hours at 37° C. with 5 mM FA-HP-β-CyD and 15 mM HP-β-CyD. Pretreatment was then carried out for 24 hours with the autophagy inhibitors chloroquine (20 μM) (FUJIFILM Wako Pure Chemical Corporation), bafilomycin A1 (1 nM) (Funakoshi), or LY294002 (50 μM) (FUJIFILM Wako Pure Chemical Corporation). Cell proliferation was then evaluated using a Cell Counting Kit-8 (Dojindo, Japan), which is a modified dimethyl-thiazole-diphenyl-tetrazolium (MTT) assay.
(§7) Here, the “CT” in FIG. 8 was evaluated as follows. Thus, 2×10^5 of each cell with 100 μL RPMI1640 medium was seeded per well to a flatbottom 96-well plate and culture was carried out for 2 hours+24 hours as in the exposure groups, but without exposure to the agent or autophagy inhibitor, and this was used as the CT. This CT was compared with the exposure groups.
(§8) Significant difference was determined as follows. That is, the data were analyzed using a two-sided Student's t-test without a comparison table. A value of P<0.05 was considered to indicate a significant difference.

The test system of series [5] is K562. The description is as above. In kind it is cell-based. The settings on record: 5 mM FA-HP-β-CyD or 15 mM HP-β-CyD, chloroquine, bafilomycin A1 or LY294002 (FIG. 8). Here is the method:
as §4, §5, §6, §7, §8

Series [6] relates to BV173 cells (leukemia cells). Kind of series: Ventricular invasion mouse model (leukemic invasion of the central nervous system). In kind it is in vivo, BRJ mice. To be noted: HP-β-CyD 30 mg/kg. Here is the method:
Here, the effect of HP-β-CyD and FA-HP-β-CyD on leukemic central nervous system invasion was test by constructing a mouse model.
BRJ mice (female) were anesthetized (intraperitoneal administration (IP) of 100 μL of a triple anesthetic of medetomidine hydrochloride (0.75 mg/kg), mitazolam (4 mg/kg), and butorphanol tartrate (5 mg/kg)), and intrathecal transplantation was carried out, through the right coronal suture at a point 1 mm to the right of the center line defined by the sagittal suture, with a polyethylene stop tube-equipped microsyringe designed to inject BV173 cells (leukemia cells) precisely to a depth of 3 mm using a Hamilton syringe LT type needle tip style pst-3 and 25 gauge.
The FA-HP-β-CyD synthesized in Example 1 was used in this example.
The doses were set at 30 mg/kg for HP-β-CyD and 3 mg/kg for FA-HP-β-CyD by referring to the dose of HP-β-CyD for a mouse model of the hereditary lipid storage disease Niemann-Pick disease type C (NPC) (Int. J. Mol. Sci. 2021, 22, 452. https://doi.org/10.3390/ijms22010452).
as §8

For the substance “2-hydroxypropyl-β-cyclodextrin [HP-β-CyD, reference compound]”, the IC50 (usually the midpoint of a concentration-inhibition curve) in the series with BV173 [1] turned out to be 3.46 ± 0.33 mM; in the series with Ba/F3 P190, 8.04 ± 0.71 mM; in the series on Ba/F3 P210, 9.21 ± 0.054 mM; in the series with K562-IMR, 3.51 ± 0.12 mM; with K562 [2], 5.65 ± 0.96 mM; in the series with KBM5-STI, 6.64 ± 0.18 mM. Moreover, the IC50 in the series with MYL-R was determined as 8.17 ± 0.15 mM; with hepatocyte it was 12.9 ± 2.73 mM. Further, the “cytotoxic / antitumor activity on A549 low folate receptor-expressing cells” value in the series with A549 is given as “strong cytotoxic activity”. Also, in the series on BV173 [3], the cellular uptake result is reported as “almost no cellular intake”. Also, the “cell proliferation inhibitory capability on addition of an autophagy inhibitor” value in the series with BV173 [4] and in the series on K562 [5] was “such an effect is absent” throughout. Besides, the “survival in two-time administration model compared with one-time administration model” value in [6] (FIG. 14 compared with FIG. 13, FA-HP-β-CyD 3 mg/kg) is listed as “an extension in survival was not observed”. In addition, the “P versus the vehicle group (survival)” value in [6] (administered two times, first and second week, FA-HP-β-CyD 3 mg/kg (FIG. 14)) is 0.182; in series [6] (single administration in the second week, FA-HP-β-CyD 3 mg/kg (FIG. 13)) it was 0.0746.
